The values below come from PMC9977398, “Next-generation membrane-active glycopeptide antibiotics that also inhibit bacterial cell division” (Chemical Science, 2023).

The structures appear in SMILES notation.

The subject of one assay is B. subtilis. In words: BacLight assay (pore formation assay). The note with it: treatment at PEC. In kind it is cell-based. An excerpt: To examine if the compounds form pores on the membrane, a mixture of the fluorescent dyes SYTO 9 and PI was used. While SYTO 9 penetrates both intact and permeabilized cells staining them green, PI is unable to cross the intact membrane and stains only permeabilized or dead cells red. Membrane-disrupting antibiotics such as nisin are known to form pores in the membrane is stained by both SYTO 9 and PI (Fig. 4D). […] Around 20% of the cells visualized post-treatment with both compounds were stained by PI and therefore permeabilized. […]
and the untreated control were carefully removed from the well, washed with 0.9 % saline, and placed on glass slides. The biofilms were then stained with 10 μL of SYTO9 (60μM) and imaged using a Zeiss 510 Meta confocal laser-scanning microscope. The orthogonal projections of the images were processed with LSM 5 Image examiner. […]
Overnight cultures of B. subtilis 168 were grown in 50 mL flasks in 5 mL BMM media. […] The MIC was determined as the lowest concentration at which no visible bacterial OD […]
Overnight cultures of B. subtilis 168 were grown in 50 mL flasks with 10 mL of media. […] The O.D. of the solutions are recorded every 30 minutes. […]
resuspended in prewarmed BMM media. […] The fluorescence in the GFP and Texas red channels was then observed under the microscope. […]

For the next assay, the system named is biofilms of MRSA. Kind of assay: Disruption of mature biofilms, confocal microscopy. In kind it is cell-based, S. aureus. The settings on record: 20 μM; for thickness of biofilm after treatment: 24 h, untreated 11.8 μm. From the text:
Another growing challenge in treating bacterial infections is the formation of biofilms, which are recalcitrant to antibiotic treatment.[29] Most antibiotics including vancomycin are rendered ineffective against biofilms consisting of both dividing and non-dividing cells, majorly due to their inability to penetrate through the extracellular polymeric matrix. Thus, it is important to develop compounds that eradicate biofilms as well as planktonic cells. Untreated biofilms of MRSA grew to a thickness of 11.8 μm (Fig. S3A ^†). The vancomycin-treated biofilms remained intact with thickness similar to the untreated control. […]
were added to it the wells containing bacterial suspension. Fluorescence has monitored at excitation wavelength of 535 nm (slit width: 10 nm) and emission wavelength of 617 nm (slit width: 5 nm). As a measure of inner membrane permeabilization the uptake of PI was monitor by the increase in fluorescence for 30-50 min. For assessing depolarisation against stationary phase cells of MRSA ATCC 33591, cells were grown to the stationary phase for 16 h. The culture was then diluted to an OD600 of 0.2 and the depolarisation assays was performed as described. The experiments were performed three times independently in duplicates and the graph is representative of the results from all experiments.
Cytoplasmic membrane depolarization assay5
Mid log phase MRSA were harvested (3500 rpm, 5 min), washed in 5 mM glucose and 5 mM HEPES buffer (pH 7.2) in 1:1 ratio and resuspended in 5 mM HEPES buffer, 5 mM glucose and 100 mM KCl solution in 1:1:1 ratio. Then 2 μM of 3, 3′-Dipropylthiadicarbocyanine iodide (DiSC3(5)) was added to bacterial suspension and pre-incubated for 45 min. The fluorescence was monitored at excitation wavelength of 622 nm and emission wavelength of 670 nm. Then 20 μL of test compound and vancomycin were added to black well plates containing bacterial suspension and DiSC3(5) after 2-4 min of fluorescence measurement. As a measure of membrane depolarization fluorescence was monitor for another 35 min. […]

Consider `CCCCCCCCCCNC(=O)C[N+](C)(C)CCCNC(=O)C1NC(=O)C2NC(=O)C(NC(=O)C3NC(=O)C(CC(N)=O)NC(=O)C(NC(=O)C(CC(C)C)NC)C(O)c4ccc(c(Cl)c4)Oc4cc3cc(c4OC3OC(CO)C(O)C(O)C3OC3CC(C)(N)C(O)C(C)O3)Oc3ccc(cc3Cl)C2O)c2ccc(O)c(c2)-c2c(O)cc(O)cc21` (centres unmarked) [VanQAmC10 (8)], for which the “pore formation (co-staining SYTO 9 and PI)” value in the assay on B. subtilis is given as “did not co-stain cells with both the dyes”. In the assay on biofilms of MRSA, the “thickness of biofilm after treatment” value is given as 7.4 μm. Moreover, the “reduction of thickness of biofilms” value in the assay with biofilms of MRSA (mature MRSA biofilm) is on record as “about 40%”.

Consider `CN[C@H](CC(C)C)C(=O)N[C@H]1C(=O)N[C@@H](CC(N)=O)C(=O)N[C@H]2C(=O)N[C@H]3C(=O)N[C@H](C(=O)N[C@H](C(=O)O)c4cc(O)cc(O)c4-c4cc3ccc4O)[C@H](O)c3ccc(c(Cl)c3)Oc3cc2cc(c3O[C@@H]2O[C@H](CO)[C@@H](O)[C@H](O)[C@H]2O[C@H]2C[C@](C)(N)[C@H](O)[C@H](C)O2)Oc2ccc(cc2Cl)[C@H]1O` [Vancomycin, reference compound], for which the “thickness of biofilm after treatment” value in the assay on biofilms of MRSA worked out at 10.1 μm.

Consider `CNC(CC(C)C)C(=O)NC1C(=O)NC(CC(N)=O)C(=O)NC2C(=O)NC3C(=O)NC(C(=O)NC(C(=O)NCCC[N+](C)(C)Cc4ccc(-c5ccccc5)cc4)c4cc(O)cc(O)c4-c4cc3ccc4O)C(O)c3ccc(c(Cl)c3)Oc3cc2cc(c3OC2OC(CO)C(O)C(O)C2OC2CC(C)(N)C(O)C(C)O2)Oc2ccc(cc2Cl)C1O` (centres unmarked) [VanQbiph (4)], for which the “pore formation (co-staining SYTO 9 and PI)” value in the assay with B. subtilis is listed as “did not co-stain cells with both the dyes”.
